Converted amounts (≈) assume the structure as drawn.

These results are taken from patent publication US20230192717A1, “COMPOSITIONS AND METHODS OF MODULATING SHORT-CHAIN DEHYDROGENASE ACTIVITY” (RODEO THERAPEUTICS CORPORATION, priority 2020, published 2023).

Test system in the first data set: not listed separately
Briefly: kinetic aqueous solubility in pH 7 citrate buffer. As to conditions: kinetic from dmso stock, pH 7 citrate buffer solution, read-out: Kinetic Aq solubility (μM pH 7). In kind it is physicochemical.
On to `COCC[S+]([O-])c1sc2nc(-c3cnc4nn(C)cc4c3)nc(C(C)C)c2c1N` (stereo not drawn) [Compound 17, 4-isopropyl-6-((2-methoxyethyl)sulfinyl)-2-(2-methyl-2H-pyrazolo[3,4-b]pyridin-5-yl)thieno[2,3-d]pyrimidin-5-amine], for which the kinetic solubility came out at 187 µM (≈ 80.5 µg/mL).

For another data set, the target named is T1, recombinant 15-PGDH (Homo sapiens, UniProt P15428).
T1 sequence (P15428 1-266): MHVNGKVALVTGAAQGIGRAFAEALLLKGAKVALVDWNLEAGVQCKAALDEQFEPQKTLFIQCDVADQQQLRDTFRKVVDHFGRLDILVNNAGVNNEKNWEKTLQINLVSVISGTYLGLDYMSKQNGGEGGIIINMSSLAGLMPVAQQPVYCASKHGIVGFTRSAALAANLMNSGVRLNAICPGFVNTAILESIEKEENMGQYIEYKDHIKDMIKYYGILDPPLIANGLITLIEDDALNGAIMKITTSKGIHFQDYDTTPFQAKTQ
Description: inhibition of enzymatic activity of recombinant 15-PGDH in vitro. The class given is biochemical. As to conditions: recombinant human 15-PGDH. An excerpt: The Recombinant 15-PGDH is human unless otherwise specified.
For `COCC[S+]([O-])c1sc2nc(-c3ccc4nccnc4c3)cc(C(C)C)c2c1N` (single isomer, unassigned) [Compound 25, 2-[2-methoxyethanesulfinyl]-4-(propan-2-yl)-6-(quinoxalin-6-yl)thieno[2,3-b]pyridin-3-amine], the IC50 is over 10 nM. On to `COCC[S@@+]([O-])c1sc2nc(-c3cnc(N)nc3)cc(C(C)C)c2c1N` (stereo in doubt) [Compound 18, 5-{3-amino-2-[2-methoxyethanesulfinyl]-4-(propan-2-yl)thieno[2,3-b]pyridin-6-yl}pyrimidin-2-amine], for which the half-inhibitory concentration (IC50) is under 2.5 nM. Consider `COCC[S@+]([O-])c1sc2nc(-c3cnc(N)nc3)cc(C(C)C)c2c1N` (stereo in doubt) [Compound 19, 5-{3-amino-2-[2-methoxyethanesulfinyl]-4-(propan-2-yl)thieno[2,3-b]pyridin-6-yl}pyrimidin-2-amine], for which the half-inhibitory concentration (IC50) is over 10 nM. For the compound `CNc1ncc(-c2cc(C(C)C)c3c(N)c([S+]([O-])CCOC)sc3n2)cn1` (stereo in doubt) [Compound 23, 5-{3-amino-2-[(R)-2-methoxyethanesulfinyl]-4-(propan-2-yl)thieno[2,3-b]pyridin-6-yl}-N-methylpyrimidin-2-amine], the IC50 is over 10 nM. Still for that read-out and setting: under `COCC[S@@+]([O-])c1sc2nc(-c3ccc4nccnc4c3)cc(C(C)C)c2c1N` (stereo in doubt) [Compound 24, 2-[2-methoxyethanesulfinyl]-4-(propan-2-yl)-6-(quinoxalin-6-yl)thieno[2,3-b]pyridin-3-amine] stands under 2.5 nM; under `Cn1nccc1-c1cc(-c2cnc3ncccc3c2)nc2sc([S@+]([O-])C3CCC3)c(N)c12` (stereo in doubt) [Compound 26, 2-(cyclobutanesulfinyl)-4-(1-methyl-1H-pyrazol-5-yl)-6-(1,8-naphthyridin-3-yl)thieno[2,3-b]pyridin-3-amine], under 2.5 nM. Consider `Cn1nccc1-c1cc(-c2cnc3ncccc3c2)nc2sc([S@@+]([O-])C3CCC3)c(N)c12` (stereo in doubt) [Compound 27, 2-(cyclobutanesulfinyl)-4-(1-methyl-1H-pyrazol-5-yl)-6-(1,8-naphthyridin-3-yl)thieno[2,3-b]pyridin-3-amine], for which the IC50 is over 10 nM.

For the compound `Cn1nccc1-c1cc(-c2ccc3nccnc3c2)nc2sc([S@+]([O-])C3CCC3)c(N)c12` [Compound 1, (R)-2-(cyclobutylsulfinyl)-4-(1-methyl-1H-pyrazol-5-yl)-6-(quinoxalin-6-yl)thieno[2,3-b]pyridin-3-amine], the IC50 is under 2.5 nM. Still for that read-out and setting: under `Cn1nccc1-c1cc(-c2ccc3cncnc3c2)nc2sc([S@+]([O-])C3CCC3)c(N)c12` [Compound 2, 2-[(R)-cyclobutanesulfinyl]-4-(1-methyl-1H-pyrazol-5-yl)-6-(quinazolin-7-yl)thieno[2,3-b]pyridin-3-amine] stands under 2.5 nM; under `COCC[S+]([O-])c1sc2nc(-c3cnc4cccnc4c3)cc(-c3ccnn3C)c2c1N` (stereo not drawn) [Compound 3, 2-(2-methoxyethanesulfinyl)-4-(1-methyl-1H-pyrazol-5-yl)-6-(1,5-naphthyridin-3-yl)thieno[2,3-b]pyridin-3-amine], under 2.5 nM; under `COCC[S@@+]([O-])c1sc2nc(-c3ccc4nccnc4c3)cc(-c3ccnn3C)c2c1N` [Compound 4, 2-[(R)-2-methoxyethanesulfinyl]-4-(1-methyl-1H-pyrazol-5-yl)-6-(quinoxalin-6-yl)thieno[2,3-b]pyridin-3-amine], under 2.5 nM.

Turning to `Cn1nccc1-c1cc(-c2cnc3ncccn23)nc2sc([S@+]([O-])C3CCC3)c(N)c12` [Compound 5, 2-[(R)-cyclobutanesulfinyl]-6-{imidazo[1,2-a]pyrimidin-3-yl}-4-(1-methyl-1H-pyrazol-5-yl)thieno[2,3-b]pyridin-3-amine], the IC50 was in the range of 2.5 to 10 nM. Regarding `COCC[S+]([O-])c1sc2nc(-c3cnc4ncccc4c3)cc(C3CCC3)c2c1N` (stereo not drawn) [Compound 6, 4-cyclobutyl-2-(2-methoxyethanesulfinyl)-6-(1,8-naphthyridin-3-yl)thieno[2,3-b]pyridin-3-amine], the IC50 is under 2.5 nM. For `COCC[S+]([O-])c1sc2nc(-c3cnc4nccnc4c3)cc(C3CCC3)c2c1N` (stereo not drawn) [Compound 7, 4-cyclobutyl-2-(2-methoxyethanesulfinyl)-6-{pyrido[2,3-b]pyrazin-7-yl}thieno[2,3-b]pyridin-3-amine], the half-inhibitory concentration (IC50) is under 2.5 nM. Consider `CC(C)c1cc(-c2cnc(NCCO)nc2)nc2sc([S@@+]([O-])C3CCC3)c(N)c12` [Compound 8], for which the IC50 is over 10 nM. Take `Cn1nccc1-c1cc(-c2ccc3ncncc3c2)nc2sc([S@+]([O-])C3CCC3)c(N)c12` [Compound 10, 2-[(R)-cyclobutanesulfinyl]-4-(1-methyl-1H-pyrazol-5-yl)-6-(quinazolin-6-yl)thieno[2,3-b]pyridin-3-amine]: the concentration for half-maximal inhibition (IC50) was under 2.5 nM. The same measure, in the same setting: under `COCC[S@@+]([O-])c1sc2nc(-c3cnc4cnccn34)cc(C3CCC3)c2c1N` [Compound 11, (R)-4-cyclobutyl-6-(imidazo[1,2-a]pyrazin-3-yl)-2-((2-methoxyethyl)sulfinyl)thieno[2,3-b]pyridin-3-amine] stands under 2.5 nM. For the compound `Cn1nccc1-c1cc(-c2cnc3ncccc3c2)nc2sc([S+]([O-])C3CCC3)c(N)c12` (stereo not drawn) [Compound 12, 2-(cyclobutanesulfinyl)-4-(1-methyl-1H-pyrazol-5-yl)-6-(1,8-naphthyridin-3-yl)thieno[2,3-b]pyridin-3-amine], the IC50 is under 2.5 nM. On to `COCC[S@@+]([O-])c1sc2nc(-c3cnc4cnccn34)cc(-c3ccnn3C)c2c1N` [Compound 13, (R)-6-(imidazo[1,2-a]pyrazin-3-yl)-2-((2-methoxyethyl)sulfinyl)-4-(1-methyl-1H-pyrazol-5-yl)thieno[2,3-b]pyridin-3-amine], for which the IC50 was under 2.5 nM. Turning to `Cn1cc2cc(-c3cc(C4CC5(COC5)C4)c4c(N)c([S@+]([O-])C5CCC5)sc4n3)cnc2n1` [Compound 14, (R)-2-(cyclobutylsulfinyl)-6-(2-methyl-2H-pyrazolo[3,4-b]pyridin-5-yl)-4-(2-oxaspiro[3.3]heptan-6-yl)thieno[2,3-b]pyridin-3-amine], the 50% inhibitory concentration (IC50) was under 2.5 nM. As for `COCC[S@@+]([O-])c1sc2nc(-c3ccc4ncncc4c3)cc(-c3ccnn3C)c2c1N` [Compound 15, 2-[(R)-2-methoxyethanesulfinyl]-4-(1-methyl-1H-pyrazol-5-yl)-6-(quinazolin-6-yl)thieno[2,3-b]pyridin-3-amine], the half-inhibitory concentration (IC50) is under 2.5 nM. Turning to `COCC[S@@+]([O-])c1sc2nc(-c3ccc4cncnc4c3)cc(-c3ccnn3C)c2c1N` [Compound 16, 2-[(R)-2-methoxyethanesulfinyl]-4-(1-methyl-1H-pyrazol-5-yl)-6-(quinazolin-7-yl)thieno[2,3-b]pyridin-3-amine], the half-maximal inhibitory concentration (IC50) is under 2.5 nM. With `COCC[S+]([O-])c1sc2nc(-c3cnc4nn(C)cc4c3)nc(C(C)C)c2c1N` (stereo not drawn) [Compound 17, 4-isopropyl-6-((2-methoxyethyl)sulfinyl)-2-(2-methyl-2H-pyrazolo[3,4-b]pyridin-5-yl)thieno[2,3-d]pyrimidin-5-amine], the half-maximal inhibitory concentration (IC50) was under 2.5 nM.

For the compound `CC(C)c1cc(-c2cnc(N)nc2)nc2sc([S@+]([O-])C3CCC3)c(N)c12` [Compound 20], the half-maximal inhibitory concentration (IC50) was under 2.5 nM. The same measure, in the same setting: under `CC(C)c1cc(-c2cnc(N)nc2)nc2sc([S@@+]([O-])C3CCC3)c(N)c12` [Compound 21] stands over 10 nM. Consider `CNc1ncc(-c2cc(C(C)C)c3c(N)c([S@+]([O-])CCOC)sc3n2)cn1` [Compound 22, 5-{3-amino-2-[(R)-2-methoxyethanesulfinyl]-4-(propan-2-yl)thieno[2,3-b]pyridin-6-yl}-N-methylpyrimidin-2-amine], for which the IC50 is under 2.5 nM.

For the compound `COCC[S@@+]([O-])c1sc2nc(-c3cnc4nn(C)cc4c3)cc(C(C)(C)C)c2c1N` [Compound 28, 4-tert-butyl-2-[(R)-2-methoxyethanesulfinyl]-6-{2-methyl-2H-pyrazolo[3,4-b]pyridin-5-yl}thieno[2,3-b]pyridin-3-amine], the half-maximal inhibitory concentration (IC50) is under 2.5 nM. Regarding `Cn1nccc1-c1cc(-c2cnc3c(c2)CNCC3)nc2sc([S+]([O-])C3CCC3)c(N)c12` (stereo not drawn) [Compound 31, 2-(cyclobutanesulfinyl)-4-(1-methyl-1H-pyrazol-5-yl)-6-(5,6,7,8-tetrahydro-1,6-naphthyridin-3-yl)thieno[2,3-b]pyridin-3-amine], the concentration for half-maximal inhibition (IC50) is 2.5 to 10 nM. For `COCC[S+]([O-])c1sc2nc(-c3cnc4c(c3)OCCN4)cc(-c3ccnn3C)c2c1N` (stereo not drawn) [Compound 32, 2-(2-methoxyethanesulfinyl)-4-(1-methyl-1H-pyrazol-5-yl)-6-{2H,3H,4H-pyrido[3,2-b][1,4]oxazin-7-yl}thieno[2,3-b]pyridin-3-amine], the 50% inhibitory concentration (IC50) is under 2.5 nM. On to `CC(C)c1cc(-c2cc(=O)n(C)cn2)nc2sc([S@+]([O-])C3CCC3)c(N)c12` [Compound 33, 6-{3-amino-2-[(R)-cyclobutanesulfinyl]-4-(propan-2-yl)thieno[2,3-b]pyridin-6-yl}-3-methyl-3,4-dihydropyrimidin-4-one], for which the half-maximal inhibitory concentration (IC50) is under 2.5 nM. For the compound `COCC[S@@+]([O-])c1sc2nc(-c3cc(=O)n(C)cn3)cc(C(C)C)c2c1N` [Compound 34, 6-{3-amino-2-[(R)-2-methoxyethanesulfinyl]-4-(propan-2-yl)thieno[2,3-b]pyridin-6-yl}-3-methyl-3,4-dihydropyrimidin-4-one], the IC50 is under 2.5 nM. In the case of `CC(C)(C)c1cc(-c2cnc(N)nc2)nc2sc([S@+]([O-])C3CCC3)c(N)c12` [Compound 35, 5-{3-amino-4-tert-butyl-2-[(R)-cyclobutanesulfinyl]thieno[2,3-b]pyridin-6-yl}pyrimidin-2-amine], the concentration for half-maximal inhibition (IC50) is under 2.5 nM.
